Assay results reported in patent US6469008B2, “(R)-hydroxynefazodone antipsychotic therapy” (Sepracor Inc., priority 1999, dated 2002).

Assays:
Human D2 receptor = target: T1, Human D2 receptor (Homo sapiens, UniProt P14416); assay: Dopamine D2 receptor binding; conditions: [3H]spiperone, transfected A9L cell membranes
T1 construct: expressed in transfected cells; host or cells: A9L cells
Method: (§1) Dopamine and serotonin receptor binding assays were performed in a standard manner with the incubation of membrane preparations in an assay buffer in the presence of a known radioactively labeled specific ligand for the receptor subtypes. Nonspecific binding was determined by assessing binding in the presence of excess ligand. Specific binding was measured as the total labeled ligand bound after the nonspecific binding was subtracted. The effect of the tested agents was measured by determining the competition for the receptor binding across a concentration range. Subsequently, an IC50 was determined for the agents tested. More specific details are provided below for several of the assays performed.
(§2) Aliquots of transfected A9L cell membrane preparations corresponding to 20-40 μg protein are incubated for 60 min at 22° C. in 250 μl of 50 mM Tris-HCl buffer (pH 7.4) containing 120 mM NaCl, 5 mM KCl, 5 mM MgCl2, 1 mM EDTA, 0.3 nM [^3H]spiperone and increasing concentrations of the competing drugs. Nonspecific binding is determined in the presence of 10 μM (+)butaclamol. After incubation, the samples are filtered rapidly under vacuum through glass fiber filters (GF/B, Packard) and rinsed several times with ice-cold 50 mM Tris-HCl using a cell harvester (Packard). Bound radioactivity is measured with a scintillation counter (Topcount, Packard) using a liquid scintillation cocktail (Microscint 0, Packard). The reference compound for this assay is (+)butaclamol.

5-HT1B = target: T2, 5-HT1B (Homo sapiens, UniProt P28222); assay: 5-HT1B receptor binding; conditions: read-out: Serotonin Receptor Binding 5-HT1B (IC50)
T2 construct: host or cells: membrane preparations
T2 sequence (P28222 whole entry, species assumed): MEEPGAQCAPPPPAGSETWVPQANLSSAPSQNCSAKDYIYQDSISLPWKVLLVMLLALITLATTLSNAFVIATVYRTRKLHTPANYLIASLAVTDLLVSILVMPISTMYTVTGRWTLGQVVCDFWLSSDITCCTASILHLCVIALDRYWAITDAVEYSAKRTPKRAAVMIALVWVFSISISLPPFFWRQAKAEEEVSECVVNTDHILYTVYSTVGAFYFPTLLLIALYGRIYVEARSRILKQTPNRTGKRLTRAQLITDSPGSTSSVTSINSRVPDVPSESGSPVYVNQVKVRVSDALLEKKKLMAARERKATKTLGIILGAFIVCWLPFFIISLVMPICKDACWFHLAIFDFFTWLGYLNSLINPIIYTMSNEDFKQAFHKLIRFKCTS
Method: as §1

5-HT1D = target: T3, 5-HT1D (Homo sapiens, UniProt P28221); assay: 5-HT1D receptor binding; conditions: read-out: Serotonin Receptor Binding 5-HT1D (IC50)
T3 construct: host or cells: membrane preparations
T3 sequence (P28221 whole entry, species assumed): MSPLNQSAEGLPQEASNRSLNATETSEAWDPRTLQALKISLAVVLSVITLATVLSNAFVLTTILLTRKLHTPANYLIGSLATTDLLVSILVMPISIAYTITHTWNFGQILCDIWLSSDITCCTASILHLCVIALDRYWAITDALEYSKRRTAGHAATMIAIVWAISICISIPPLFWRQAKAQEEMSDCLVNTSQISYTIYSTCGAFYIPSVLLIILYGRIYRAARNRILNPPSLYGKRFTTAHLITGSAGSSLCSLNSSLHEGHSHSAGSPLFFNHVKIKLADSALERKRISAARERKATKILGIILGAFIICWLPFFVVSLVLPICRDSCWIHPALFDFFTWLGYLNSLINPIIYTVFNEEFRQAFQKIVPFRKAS
Method: as §1

5-HT5A = target: T4, 5-HT5A (Homo sapiens, UniProt P47898); assay: 5-HT5A receptor binding; conditions: read-out: Serotonin Receptor Binding 5-HT5A (IC50)
T4 construct: host or cells: membrane preparations
T4 sequence (P47898 whole entry, species assumed): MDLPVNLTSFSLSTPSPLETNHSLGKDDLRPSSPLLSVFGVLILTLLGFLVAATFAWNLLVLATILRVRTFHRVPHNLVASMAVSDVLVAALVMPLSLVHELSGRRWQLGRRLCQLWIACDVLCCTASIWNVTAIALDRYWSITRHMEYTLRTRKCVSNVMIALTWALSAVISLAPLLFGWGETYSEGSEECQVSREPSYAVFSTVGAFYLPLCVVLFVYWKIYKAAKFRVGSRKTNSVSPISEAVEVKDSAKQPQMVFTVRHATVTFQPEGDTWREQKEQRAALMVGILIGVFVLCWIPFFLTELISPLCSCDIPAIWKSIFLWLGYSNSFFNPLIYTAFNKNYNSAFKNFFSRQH
Method: as §1

α1 Receptor = assay: α1 receptor binding; conditions: read-out: α1 Receptor Binding Alpha1 (IC50)
[1] = cited from earlier work
[2] = test system: alpha2 adrenergic receptors; conditions: in vitro binding studies; cited from earlier work
[3] = test system: beta adrenergic receptors; conditions: in vitro binding studies; cited from earlier work
5-HT1A receptors [4] = target: T5, 5-HT1A receptors (Homo sapiens, UniProt P08908); conditions: in vitro binding studies; cited from earlier work
T5 sequence (P08908 1-422): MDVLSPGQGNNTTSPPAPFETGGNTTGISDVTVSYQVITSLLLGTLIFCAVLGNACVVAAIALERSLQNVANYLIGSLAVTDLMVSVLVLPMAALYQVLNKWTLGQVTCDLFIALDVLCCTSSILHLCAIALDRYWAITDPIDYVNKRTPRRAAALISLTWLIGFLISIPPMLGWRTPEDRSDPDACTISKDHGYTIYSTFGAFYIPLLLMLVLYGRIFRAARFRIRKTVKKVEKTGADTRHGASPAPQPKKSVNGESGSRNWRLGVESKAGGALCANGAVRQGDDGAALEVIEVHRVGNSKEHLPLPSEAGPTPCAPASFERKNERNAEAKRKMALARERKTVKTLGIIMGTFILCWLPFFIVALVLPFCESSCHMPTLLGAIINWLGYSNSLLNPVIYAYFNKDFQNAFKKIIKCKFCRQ

cholinergic receptors = conditions: in vitro binding studies; cited from earlier work
dopaminergic receptors = conditions: in vitro binding studies; cited from earlier work
benzodiazepine receptors = conditions: in vitro binding studies; cited from earlier work
[5] = test system: alpha1-adrenergic receptors; conditions: cited from earlier work
5-HT1A receptors [6] = target: T5, 5-HT1A receptors; assay: 5-HT1A receptor binding; design: expressed in transfected cells; host or cells: CHO cells; conditions: [3H]8-OH-DPAT, transfected CHO cell membranes; read-out: Serotonin Receptor Binding 5-HT1A (IC50)
Method: as §1
as §2, with “CHO” for “A9L”, “7-15” for “20-40”, “10” for “120”, “MgSO4, 0.5” for “NaCl, 5 mM KCl, 5 mM MgCl2, 1”, “[^3H]8-OH-DPAT” for “[^3H]spiperone”, “8-OH-DPAT.” for “(+)butaclamol.”

T1 sequence (P14416 whole entry): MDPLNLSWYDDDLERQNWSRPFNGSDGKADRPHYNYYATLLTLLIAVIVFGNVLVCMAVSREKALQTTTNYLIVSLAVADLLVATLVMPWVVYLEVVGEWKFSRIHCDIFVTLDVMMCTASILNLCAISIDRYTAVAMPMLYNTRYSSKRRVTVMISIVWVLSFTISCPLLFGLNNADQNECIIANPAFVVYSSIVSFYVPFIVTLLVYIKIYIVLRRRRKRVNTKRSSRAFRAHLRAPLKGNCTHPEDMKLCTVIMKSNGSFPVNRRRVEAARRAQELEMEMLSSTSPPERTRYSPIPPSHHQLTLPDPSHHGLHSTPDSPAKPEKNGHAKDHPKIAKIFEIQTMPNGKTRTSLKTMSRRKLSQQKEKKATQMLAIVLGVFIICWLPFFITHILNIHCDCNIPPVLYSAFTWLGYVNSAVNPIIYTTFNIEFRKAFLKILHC

CCc1nn(CCCN2CCN(c3cccc(Cl)c3)CC2)c(=O)n1CCOc1ccccc1 [Nefazodone]
IC50 (Human D2 receptor): 716 nM | IC50 (5-HT1B): 1870 nM | IC50 (5-HT1D): 925 nM | IC50 (5-HT5A): 1560 nM | IC50 (α1 Receptor): 306 nM | kinetics for dose and time (AUC and Cmax) ([1]; AUC and Cmax increasing more than proportionally with dose and upon multiple dosing): nonlinear kinetics | half-life ([1]; in vivo): 2 to 4 h | time of peak plasma concentrations ([1]; in vivo): about one | absolute bioavailability ([1]; low and variable because of extensive metabolism): about 20% | affinity for alpha2 adrenergic receptors [2]: no significant affinity | affinity for beta adrenergic receptors [3]: no significant affinity | affinity for 5-HT1A receptors (5-HT1A receptors [4]): no significant affinity | affinity for cholinergic receptors (cholinergic receptors): no significant affinity | affinity for dopaminergic receptors (dopaminergic receptors): no significant affinity | affinity for benzodiazepine receptors (benzodiazepine receptors): no significant affinity | action on alpha1-adrenergic receptors [5]: antagonize | IC50 (5-HT1A receptors [6]): 625 nM
